# From patent publication US5331006A, “Amino acid analogs as CCK antagonists” (Warner-Lambert Company, priority 1991, dated 1994)
# Read-outs that look alike come from different tables or passages of the source.
# Target: T1, CCK receptor sites (Mus musculus, UniProt P56481)
# T1 construct: from tissue; host or cells: cerebral cortex membranes of male CFLP mice
# T1 sequence (P56481 1-453): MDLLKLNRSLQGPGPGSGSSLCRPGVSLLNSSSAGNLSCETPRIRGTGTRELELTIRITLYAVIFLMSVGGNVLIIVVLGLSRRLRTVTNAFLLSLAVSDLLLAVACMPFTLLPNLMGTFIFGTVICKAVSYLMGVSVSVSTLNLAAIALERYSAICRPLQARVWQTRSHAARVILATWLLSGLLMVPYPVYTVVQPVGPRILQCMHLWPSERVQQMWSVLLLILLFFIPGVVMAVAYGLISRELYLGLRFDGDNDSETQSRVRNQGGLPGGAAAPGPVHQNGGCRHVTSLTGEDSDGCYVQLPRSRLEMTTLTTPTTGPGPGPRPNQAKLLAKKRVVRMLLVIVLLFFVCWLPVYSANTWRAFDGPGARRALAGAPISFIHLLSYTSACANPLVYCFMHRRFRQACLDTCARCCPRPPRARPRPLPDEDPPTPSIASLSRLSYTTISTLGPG
# Assay: CCK receptor binding, displacement of tritiated pentagastrin from mouse cerebral cortex membranes
# Parameters: key: IA = Inactive in respect to this binding assay
# Details: 2 nM tritiated pentagastrin, mouse cerebral cortical membranes, Ki from IC50 by Cheng-Prusoff
# Experimental: The biological activity of compounds of the present invention was evaluated employing an initial screening test which rapidly and accurately measured the binding of the tested compound to known CCK receptor sites. […] (See Hays, et al, Neuropeptides 1:53-62, 1980; and Satuer, et al, Science 208:1155-1156, 1980.)
# In this screening test the cerebral cortices taken from male CFLP mice weighing between 30 to 40 g were dissected on ice, weighed, and homogenized in 10 volumes of 50 mM Tris-HCl buffer (pH 7.4 at 0° to 4° C.). The resulting suspension was centrifuged, the supernate was discarded, and the pellet was washed by resuspension in Tris-HCl buffer followed by recentrifugation. The final pellet was resuspended in 20 volumes of […] Hepes buffer (pH 7.2 at 23° C.) containing 130 mM NaCl, […] KCl, […] MgCl2, […] EDTA, 5 mg/mL bovine albumin, and bacitracin (0.25 mg/mL).
# In saturation studies, cerebral cortical membranes were incubated at 23° C. for 120 minutes in a final volume of 500 μL of Hepes incubation buffer (pH 7.2) together with 0.2-20 nM tritiated-pentagastrin (Amersham International, England).
# In the displacement experiments, membranes were incubated with a single concentration (2 nM) of ligand, together with increasing concentrations of competitive test compound. In each case, the nonspecific binding was defined as that persisting in the presence of the unlabeled octapeptide CCK26-33 (10^-6 M).
# Following incubation, radioactivity bound to membranes was separated from that free in solution by rapid filtration through Whatman GF/B filters and washed three times with 4 mL of ice cold Tris-HCl buffer. Filters from samples incubated with tritiated pentagastrin were placed in polyethylene vials with 4 mL of scintillation cocktail, and the radioactivity was estimated by liquid scintillation spectrometry (efficiency 47% to 52%).
# The specific binding to CCK receptor sites was defined as the total bound tritiated pentagastrin minus the amount of tritiated pentagastrin bound in the presence of 10^-6 octapeptide, CCK26-33.
# Saturation curves for specific tritiated pentagastrin binding to mouse cortical membranes were analyzed by the methods of Scatchard (Ann. New York Acad. Sci. 51:660-672, 1949; Hill, J. Physiol. 40:IV-VIII, 1910) to provide estimates for the maximum number of binding sites (βmax)and the equilibrium dissociation constant (Ka).
# In displacement experiments, inhibition curves were analyzed by either logit-log plots or the iterative curve fitting computer program ALLFIT (DeLean, Munson, and Redbard, 1978) to provide estimates of the IC50 and nH (apparent Hill coefficient) values). IC50 values were defined as the concentration of test compound required to produce 50% inhibition of specific binding).
# The inhibition constant (Ki) of the test compound was then calculated according to the Cheng-Prusoff equation: [formula] where [L] is the concentration of radiolabel and Ka is the equilibrium dissociation constant.
# The Ki values for several representative compounds of the present invention are present in Table II.
Ki (read-out: Ki) [nM],Ki,Compound
580,–,CC(Cc1c[nH]c2ncccc12)(NC(=O)OC1C2CC3CC(C2)CC1C3)C(=O)NC(CO)C(O)c1ccccc1 (stereo not shown) [drawing 66 (Diast I)]
43,–,CC(Cc1c[nH]c2ncccc12)(NC(=O)OC1C2CC3CC(C2)CC1C3)C(=O)NC(CO)C(O)c1ccccc1 (stereo not shown) [drawing 66 (Diast II)]
–,IA,CC(Cc1c[nH]c2ccncc12)(NC(=O)OC1C2CC3CC(C2)CC1C3)C(=O)NC(CO)C(O)c1ccccc1 (stereo not shown) [drawing 67]
2300,–,CC(Cc1c[nH]c2ccncc12)(NC(=O)OC1C2CC3CC(C2)CC1C3)C(=O)NC(CO)C(O)c1ccccc1 (stereo not shown) [drawing 69]
